# Patent publication US8163789B2, “Selective and dual-action p53/MDM2/MDM4 antagonists” (University of Pittsburgh—of the Commonwealth System of …, priority 2007, dated 2012)
# Molecular target: T1, MDM4 (Homo sapiens, UniProt O15151)
# T1 sequence (O15151 1-490): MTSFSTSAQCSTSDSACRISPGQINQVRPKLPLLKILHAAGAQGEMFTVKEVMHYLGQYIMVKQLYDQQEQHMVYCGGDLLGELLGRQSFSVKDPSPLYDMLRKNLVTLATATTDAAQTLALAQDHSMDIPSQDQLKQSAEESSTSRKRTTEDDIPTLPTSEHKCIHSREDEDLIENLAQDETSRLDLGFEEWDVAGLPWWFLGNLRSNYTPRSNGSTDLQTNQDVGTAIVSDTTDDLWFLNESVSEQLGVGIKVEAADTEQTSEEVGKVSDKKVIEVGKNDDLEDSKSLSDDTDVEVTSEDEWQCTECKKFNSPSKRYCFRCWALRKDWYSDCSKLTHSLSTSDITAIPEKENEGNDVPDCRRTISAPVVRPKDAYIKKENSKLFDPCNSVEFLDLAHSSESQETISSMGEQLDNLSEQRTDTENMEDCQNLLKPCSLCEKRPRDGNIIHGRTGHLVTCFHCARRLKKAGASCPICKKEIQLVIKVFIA
# Experiment: NMR-based binding assay, MDM4
# Settings: imidazolidine scaffold, Table 3
# Description: (§1) In one of its aspects, the present invention provides a method for generating and screening virtual libraries based on 40 different MCRs having the indole fragment. The inventive method comprises docking individual molecules from the virtual library into a high resolution structure of the MDM2 protein. Docking is carried out by maintaining the same positional constraints on the indole ring of the docked molecule to those for the indole side chain in the high resolution X-ray structure of MDM2-p53 peptide. The compounds identified from docking experiments as potential inhibitors of MDM2-p53 interaction are then synthesized and tested for the inhibitory activity using an NMR-based binding assay. […] A similar strategy was used to identify and select compounds that could potentially be used as inhibitors for disrupting MDM4-p53 interaction.
# The compounds identified using MCR were then screened for the ability to bind MDM2 or MDM4 (KA) (primary assay). The molecules identified as binders of MDM2 or MDM4 by the primary assay are subsequently tested for their ability to disrupt the MDM2/p53-peptide complex (KD) in a secondary assay. Based on the results from the primary and secondary assays, further downstream assays involving screening using various cell lines (PC3, A549, MDAMB231) and determination of the growth inhibition constants may be performed for a select sub-set of molecules. […]
row,Ki,SMILES
1,~5 µM,COC(=O)C1(c2ccccc2)N=CN(Cc2cccc(N)c2)C1c1ccc(Cl)cc1 (stereo not shown)

# Molecular target: MDM2 (Homo sapiens, UniProt Q00987)
# Sequence (Q00987 whole entry): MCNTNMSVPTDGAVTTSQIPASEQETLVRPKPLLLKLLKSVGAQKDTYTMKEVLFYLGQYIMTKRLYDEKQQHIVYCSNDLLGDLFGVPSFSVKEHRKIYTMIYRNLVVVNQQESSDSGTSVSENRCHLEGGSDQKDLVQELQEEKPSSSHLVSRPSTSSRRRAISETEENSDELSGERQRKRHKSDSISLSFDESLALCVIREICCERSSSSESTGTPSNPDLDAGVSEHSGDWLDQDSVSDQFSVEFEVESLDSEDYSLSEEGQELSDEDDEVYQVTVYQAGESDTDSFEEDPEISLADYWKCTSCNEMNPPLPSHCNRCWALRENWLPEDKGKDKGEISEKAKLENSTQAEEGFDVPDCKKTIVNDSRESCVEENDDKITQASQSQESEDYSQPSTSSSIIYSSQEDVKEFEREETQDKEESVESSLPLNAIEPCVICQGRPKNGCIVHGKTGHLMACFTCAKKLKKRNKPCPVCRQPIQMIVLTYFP
# Experiment: NMR-based binding assay, MDM2
# Settings: imidazole scaffold, Table 2
# Description: as §1
# Such an NMR-based screen has many advantages. For example, this screening method allows for the rapid determination of an approximate KA for the small molecule inhibitors, with the possibility of obtaining a more accurate KA value at a later time by titrating the p53-MDM2 complex using increasing concentrations of the inhibitor of interest. A second advantage of using this technique is that it allows identification of the binding site of the small molecule in the target protein by investigating the chemical shift perturbations that occur on binding. This information can then be used to further refine the chemical scaffold with an aim towards improving the affinity of the molecule for its target. Finally, NMR-based screening yields valuable information about promiscuous inhibitors which act as false positives by precipitating the target protein through hydrophobic effects. This information is not available when classical screening approaches such as fluorescence polarization or ELISA type assays are used for screening.
# The compounds identified using MCR were then screened for the ability to bind MDM2 or MDM4 (KA) (primary assay). The molecules identified as binders of MDM2 or MDM4 by the primary assay are subsequently tested for their ability to disrupt the MDM2/p53-peptide complex (KD) in a secondary assay. Based on the results from the primary and secondary assays, further downstream assays involving screening using various cell lines (PC3, A549, MDAMB231) and determination of the growth inhibition constants may be performed for a select sub-set of molecules. Western blot analysis of certain compounds is performed to determine p53, MDM2, and p21 content.
row,Ki,SMILES
1,~50 µM,Clc1ccc(-c2ncn(CC3CC3)c2-c2ccc(Cl)cc2)cc1

# Same assay, conditions: imidazolidine scaffold, Table 3
row,Ki,SMILES
1,~10 µM,COC(=O)C1(c2ccccc2)N=CN(CC(C)C)C1c1ccc(Cl)cc1 (stereo not shown)
2,~20 µM,COC(=O)C1(c2ccccc2)N=CN(C2CCCCC2)C1c1ccc(Cl)cc1 (stereo not shown)
3,~50 µM,COC(=O)C1(c2ccc(Cl)cc2)N=CN(CC2CC2)C1c1cc2ccc(Cl)cc2[nH]1 (stereo not shown)
4,~20 µM,COC(=O)C1(CCSC)N=CN(CC2CC2)C1c1ccc(Br)cc1 (stereo not shown)
5,~50 µM,COC(=O)C1(C)N=CN(CC2CC2)C1c1c[nH]c2ccccc12 (stereo not shown)
6,~30 µM,COC(=O)C1(c2ccccc2)N=CN(CC2CC2)C1c1c[nH]c2ccccc12 (stereo not shown)
7,~6 µM,COC(=O)C1(c2ccccc2)N=CN(CC2CC2)C1c1ccc(Br)cc1 (stereo not shown)
8,~20 µM,COC(=O)C1(c2ccccc2)N=CN(CC2CCCNC2)C1c1ccc(Cl)cc1 (stereo not shown)
9,~5 µM,COC(=O)C1(c2ccccc2)N=CN(Cc2cccc(N)c2)C1c1ccc(Cl)cc1 (stereo not shown)
10,~1 µM,COC(=O)C1(CC(C)C)N=CN(CC2CC2)C1c1ccc(Cl)cc1 (stereo not shown)
11,~2 µM,COC(=O)C1(C)N=CN(CC2CC2)C1c1ccc(Cl)cc1 (stereo not shown)
12,~50 µM,O=C(O)C1(c2ccccc2)N=CN(CC2CC2)C1c1ccc(Cl)cc1 (stereo not shown)
13,~50 µM,COC(=O)C1(c2ccccc2)N=CN(C2CCNCC2)C1c1ccc(Cl)cc1 (stereo not shown)
14,~20 µM,COC(=O)C1(c2ccccc2)N=CN(C(C)c2ccc(Cl)cc2)C1c1ccc(Cl)cc1 (stereo not shown)
15,~5 µM,COC(=O)C1(c2ccccc2)N=CN(c2ccc(Cl)cc2)C1c1ccc(Cl)cc1 (stereo not shown)
16,1 µM,O=C(NCCN1CCOCC1)C1(c2ccccc2)N=CN(CC2CC2)C1c1ccc(Cl)cc1 (stereo not shown)
17,1 µM,O=C(NCCCN1CCOCC1)C1(c2ccccc2)N=CN(CC2CC2)C1c1ccc(Cl)cc1 (stereo not shown)
18,~40 µM,COC(=O)C1(c2ccccc2)N=CN(CC2CC2)C1c1cc2ccc(Cl)cc2[nH]1 (stereo not shown)
19,~50 µM,COC(=O)C1(C)N=CN(CC2CC2)C1c1cc2ccc(Cl)cc2[nH]1 (stereo not shown)
20,~10 µM,COC(=O)C1(CCSC)N=CN(CC2CC2)C1c1ccc(Cl)cc1 (stereo not shown)
21,~5 µM,COC(=O)C1(c2ccccc2)N=CN(Cc2cccnc2)C1c1ccc(Cl)cc1 (stereo not shown)
22,~1 µM,O=C(N1CCNCC1)C1(c2ccccc2)N=CN(CC2CC2)C1c1ccc(Cl)cc1 (stereo not shown)
23,~5 µM,COC(=O)C1(c2ccc(Cl)cc2)N=CN(CC2CC2)C1c1ccc(Cl)cc1 (stereo not shown) [drawing 44]
24,~2 µM,COC(=O)C1(c2ccccc2)N=CN(CC2CC2)C1c1ccc(Cl)cc1F (stereo not shown) [drawing 45]
25,~2 µM,COC(=O)C1(c2ccccc2)N=CN(CC2CC2)C1c1ccc(Cl)cc1F (stereo not shown) [drawing 58]
26,~40 µM,COC(=O)C1(c2ccc(Cl)cc2)N=CN(CC2CC2)C1c1ccc(Cl)cc1 (stereo not shown) [drawing 67]

row,SMILES,Ki
1,COC(=O)C12N=CN(CC3CC3)C1c1ccc(Cl)cc1C2C (stereo not shown),~2 µM

# Tested on: HCT116 cells
# Experiment: GI50 against HCT116 cells in culture
# Type: cell-based
# Settings: Homo sapiens, HCT-116, imidazole scaffold, Table 2
# Description: A second approach for increasing affinity, entails introducing substituents in the 2-position of the imidazole ring to gain additional van der Waals interaction and even water solubility. A substituent in the 2-position would mimic the interactions of the Leu (FSDLWKLL) in p53, which contributes additional van der Waals interactions in addition to FWL. Optimization of compounds that belong to this family was carried out as shown in Scheme 1. Table 2 lists representative analogs that were synthesized with their GI50 values against HCT116 cells in culture. The chemistry to accomplish substitution at position-2 of the immidazole ring would involve generation of the carbanion using LDA and subsequent alkylation with iminium salts or other alkylating agents.
row,GI50,SMILES
1,~35 µM,Clc1ccc(-c2ncn(CC3CC3)c2-c2c[nH]c3ccccc23)cc1
2,~25 µM,Clc1cccc(Cc2ncn(CC3CC3)c2-c2c[nH]c3ccccc23)c1
3,~10 µM,Clc1ccc(-c2ncn(CC3CC3)c2-c2ccc(Cl)cc2)cc1
4,~40 µM,Clc1ccc(-c2ncn(CC3CC3)c2-c2cc3ccc(Cl)cc3[nH]2)cc1
5,~40 µM,Clc1ccc(-c2ncn(CC3CC3)c2-c2c[nH]c3cc(Cl)ccc23)cc1
6,~30 µM,CC(c1ccc(Cl)cc1)n1cnc(-c2ccc(Cl)cc2)c1-c1cc2ccc(Cl)cc2[nH]1 (stereo not shown)
7,~20 µM,C[C@@H](c1ccc(Cl)cc1)n1cnc(-c2ccc(Cl)cc2)c1-c1cc2ccc(Cl)cc2[nH]1
8,~20 µM,C[C@H](c1ccc(Cl)cc1)n1cnc(-c2ccc(Cl)cc2)c1-c1cc2ccc(Cl)cc2[nH]1
9,~5 µM,CC(c1cccc2ccccc12)n1cnc(-c2ccc(Cl)cc2)c1-c1cc2ccc(Cl)cc2[nH]1 (stereo not shown)
10,~1 µM,Clc1ccc2c(-c3c(-c4ccc5c(c4)OCO5)ncn3CC3CC3)c[nH]c2c1
11,~10 µM,Clc1ccc2c(-c3c(-c4ccc(Cl)c(Cl)c4)ncn3CC3CC3)c[nH]c2c1
12,~20 µM,Fc1cc(Cl)ccc1-c1c(-c2ccc(Cl)cc2)ncn1Cc1ccccc1
13,~50 µM,CC(C)(C)OC(=O)n1cc(-c2c(-c3ccc(Cl)cc3)ncn2CC2CC2)c2ccc(Cl)cc21
14,~20 µM,CN(C)Cc1nc(-c2ccc(Cl)cc2)c(-c2ccc(Cl)cc2)n1CC1CC1
